One may read the IC50 as the midpoint of a concentration-inhibition curve.

Each structure is given as a SMILES string. Residue numbers refer to the chain shown, from its start. Where a name gives a salt, the structure may show the parent alone.

Consider 16 compounds from US10442796B2, “2,3,5-substituted thiophene compound as protein kinase inhibitor” (KOREA INSTITUTE OF SCIENCE AND TECHNOLOGY, priority 2016, dated 2019).

Holding throughout (assay): Growth inhibitory activity against Ba/F3 cell line
Common to all, as to assay type: cell-based

One assay deals with Parental Ba/F3 cells. The note with it: BaF3; Parental Ba/F3 with mouse IL-3 1 ng/mL; 72 hours; cell titer glo. On the procedure: (§1) A Ba/F3 cell line expressing an FLT3 mutation gene was cultured in a culture solution including 90% RPMI, 10% FBS, and an antibiotic (Welgene). 100 uL of the Ba/F3 cell line was put into each of 5,000 wells of a TC-treated 96 well plate (SPL), and then 1 uL of a test compound diluted in dimethylsulfoxide (diluted for each 3 paint from a concentration of 1 mM, total 10 concentrations) was each injected thereinto. Thereafter, the resulting cell lines were incubated in a cell culture incubator for 72 hours. 50 uL of a cell titer glo (Promega) solution was added thereto, the resulting mixture was stored at room temperature for 10 minutes, and then the light emission intensity was measured by using a reader (Envision, PerkinElmer). The light emission intensity was shown as a graph for each final concentration of the test compound, and the GI50 value was obtained by using a Prism 5.0 (GraphPad) software.
A parental Ba/F3 cell line having no FLT3 mutation gene was cultured by using a culture solution supplemented with mouse IL-3 (R&D Systems), such that a final concentration became 1 ng/mL in the culture solution including 90% RPMI, 10% FBS, and an antibiotic (Welgene). The activity was measured by a method which is the same as described above.
A general note: ATP-based viability assays read luminescence as a measure of living cells.

Assay [1] has as its target T1, FLT3-ITD-F691L Ba/F3 cells (Homo sapiens, UniProt P36888, F691L, cells depend on it, form not given).
T1 sequence (P36888 1-993 F691L): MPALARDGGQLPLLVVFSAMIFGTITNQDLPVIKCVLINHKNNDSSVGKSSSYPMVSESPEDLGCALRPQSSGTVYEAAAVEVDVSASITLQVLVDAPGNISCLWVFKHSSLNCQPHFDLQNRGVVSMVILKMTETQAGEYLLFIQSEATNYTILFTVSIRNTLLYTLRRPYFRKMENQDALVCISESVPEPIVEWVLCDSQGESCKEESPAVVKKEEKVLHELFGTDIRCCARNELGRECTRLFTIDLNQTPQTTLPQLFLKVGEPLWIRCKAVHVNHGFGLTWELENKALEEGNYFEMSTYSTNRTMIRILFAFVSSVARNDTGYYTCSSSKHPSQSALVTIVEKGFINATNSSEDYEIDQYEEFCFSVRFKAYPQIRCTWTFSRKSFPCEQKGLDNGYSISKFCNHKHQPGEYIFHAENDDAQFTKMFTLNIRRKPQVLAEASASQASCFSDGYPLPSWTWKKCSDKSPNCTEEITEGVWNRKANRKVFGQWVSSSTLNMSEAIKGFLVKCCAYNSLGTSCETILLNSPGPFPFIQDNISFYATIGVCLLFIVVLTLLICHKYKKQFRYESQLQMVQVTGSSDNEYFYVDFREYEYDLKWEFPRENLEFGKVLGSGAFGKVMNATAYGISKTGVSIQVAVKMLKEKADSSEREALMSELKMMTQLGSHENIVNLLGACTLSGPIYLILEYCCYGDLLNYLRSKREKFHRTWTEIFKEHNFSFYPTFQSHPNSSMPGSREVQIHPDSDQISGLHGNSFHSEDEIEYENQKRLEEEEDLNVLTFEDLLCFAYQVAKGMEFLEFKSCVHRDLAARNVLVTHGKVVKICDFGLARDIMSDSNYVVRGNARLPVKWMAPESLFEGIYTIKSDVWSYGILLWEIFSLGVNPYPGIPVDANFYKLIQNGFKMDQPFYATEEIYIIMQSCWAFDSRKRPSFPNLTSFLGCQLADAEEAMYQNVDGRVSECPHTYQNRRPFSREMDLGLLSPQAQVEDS
The following applies: Ba/F3 expressing FLT3-ITD-F691L; 72 hours; cell titer glo; read-out: IC50 (uM) FLT3-ITD-F691L. The procedure: as §1

For a further assay, the target named is T2, FLT3-ITD Ba/F3 cells (Homo sapiens, UniProt P36888, cells depend on it, form not given).
T2 sequence (P36888 1-993): T1 sequence (P36888 1-993 F691L) with L691F
The following applies: Ba/F3 expressing FLT3-ITD; 72 hours; cell titer glo; read-out: IC50 (uM) FLT3-ITD. On the procedure: as §1

`NC(=O)Nc1cc(C#Cc2ccnc(F)c2)sc1C(=O)N[C@H]1CCCNC1` [Example 21, (S)-5-((2-fluoropyridin-4-yl)ethynyl)-N-(piperidin-3-yl)-3-ureidothiophene-2-carboxamide]: the IC50 in the assay with Parental Ba/F3 cells was 2.78 µM. Also, the GI50 in assay [1] is 0.087 µM; at FLT3-ITD Ba/F3 cells it was < 0.005 µM.

Consider `NC(=O)Nc1cc(C#Cc2cccc(F)c2)sc1C(=O)N[C@H]1CCCNC1` [Example 22, (S)-5-((3-fluorophenyl)ethynyl)-N-(piperidin-3-yl)-3-ureidothiophene-2-carboxamide], for which, in the assay with Parental Ba/F3 cells, the IC50 turned out to be 3.65 µM. For the same compound, the GI50 in assay [1] came to 0.032 µM; at FLT3-ITD Ba/F3 cells, 0.007 µM.

Take `CS(=O)(=O)N1CCC(n2cc(C#Cc3cc(NC(N)=O)c(C(=O)N[C@H]4CCCNC4)s3)cn2)CC1` [Example 23, (S)-5-((1-(1-(methylsulfonyl)piperidin-4-yl)-1H-pyrazol-4-yl)ethynyl)-N-(piperidin-3-yl)-3-ureidothiophene-2-carboxamide]: in the assay on Parental Ba/F3 cells, the IC50 is > 5 µM. Besides, the GI50 in assay [1] is 0.267 µM; on FLT3-ITD Ba/F3 cells it was 0.007 µM.

Take `Cc1ccc(C#Cc2cc(NC(N)=O)c(C(=O)N[C@H]3CCCNC3)s2)cc1` [Example 24, (S)—N-(piperidin-3-yl)-5-(p-tolylethynyl)-3-ureidothiophene-2-carboxamide]: the IC50 in the assay with Parental Ba/F3 cells was found to be 1.29 µM. In addition, the GI50 in assay [1] stood at 0.058 µM; on FLT3-ITD Ba/F3 cells, 0.005 µM.

Take `Cn1cc(C#Cc2cc(NC(N)=O)c(C(=O)NC3CCNC3)s2)cn1` (stereo not drawn) [Example 39, 5-((1-methyl-1H-pyrazol-4-yl)ethynyl)-N-(pyrrolidin-3-yl)-3-ureidothiophene-2-carboxamide trifluoroacetate]: the IC50 in the assay with Parental Ba/F3 cells is > 100 µM. Besides, the GI50 in assay [1] stood at 19.1 µM; on FLT3-ITD Ba/F3 cells it was 3.73 µM.

`NC(=O)Nc1cc(C#Cc2cccc(F)c2)sc1C(=O)NC1CCNC1` (stereo not drawn) [Example 40, 5-((3-fluorophenyl)ethynyl)-N-(pyrrolidin-3-yl)-3-ureidothiophene-2-carboxamide]: in the assay on Parental Ba/F3 cells, the IC50 turned out to be 14.9 µM. The values for the GI50 (in assay [1]; on FLT3-ITD Ba/F3 cells) were 0.848 µM and 0.164 µM, respectively.

As for `Cn1cc(C#Cc2cc(NC(N)=O)c(C(=O)N[C@H]3CCCCNC3)s2)cn1` [Example 41, (S)—N-(azepan-3-yl)-5-((1-methyl-1H-pyrazol-4-yl)ethynyl)-3-ureidothiophene-2-carboxamide trifluoroacetate], the IC50 in the assay with Parental Ba/F3 cells stood at 3.69 µM. The GI50 in assay [1] came out at 0.078 µM; on FLT3-ITD Ba/F3 cells, 0.013 µM.

In the case of `NC(=O)Nc1cc(C#Cc2cn[nH]c2)sc1C(=O)N[C@H]1CCCCNC1` [Example 42, (S)-5-((1H-pyrazol-4-yl)ethynyl)-N-(azepan-3-yl)-3-ureidothiophene-2-carboxamide trifluoroacetate], in the assay on Parental Ba/F3 cells, the IC50 was 54.4 µM. Further, the figures for the GI50 (in assay [1]; at FLT3-ITD Ba/F3 cells) were 5.23 µM and 0.137 µM, respectively.

Turning to `CCn1cc(C#Cc2cc(NC(N)=O)c(C(=O)N[C@H]3CCCCNC3)s2)cn1` [Example 43, (S)—N-(azepan-3-yl)-5-((l-ethyl-1H-pyrazol-4-yl)ethynyl)-3-ureidothiophene-2-carboxamide trifluoroacetate], the IC50 in the assay on Parental Ba/F3 cells was found to be 4.1 µM. For the same compound, the GI50 was determined as 0.2 µM in assay [1] and 0.01 µM at FLT3-ITD Ba/F3 cells.

Turning to `CC(C)n1cc(C#Cc2cc(NC(N)=O)c(C(=O)N[C@H]3CCCCNC3)s2)cn1` [Example 44, (S)—N-(azepan-3-yl)-5-((1-isopropyl-1H-pyrazol-4-yl)ethynyl)-3-ureidothiophene-2-carboxamide trifluoroacetate], in the assay with Parental Ba/F3 cells, the IC50 came out at 2.45 µM. For the same compound, the figures for the GI50 (in assay [1]; on FLT3-ITD Ba/F3 cells) were 0.214 µM and 0.006 µM, respectively.

For the compound `COCCn1cc(C#Cc2cc(NC(N)=O)c(C(=O)N[C@H]3CCCCNC3)s2)cn1` [Example 45, (S)—N-(azepan-3-yl)-5-((1-(2-methoxyethyl)-1H-pyrazol-4-yl)ethynyl)-3-ureidothiophene-2-carboxamide trifluoroacetate], the IC50 in the assay with Parental Ba/F3 cells worked out at 16.8 µM. Besides, the GI50 was 1.34 µM in assay [1] and 0.038 µM on FLT3-ITD Ba/F3 cells.

Take `NC(=O)Nc1cc(C#Cc2cnn(C3CCOCC3)c2)sc1C(=O)N[C@H]1CCCCNC1` [Example 46, (S)—N-(azepan-3-yl)-5-((1-(tetrahydro-2H-pyran-4-yl)-1H-pyrazol-4-yl)ethynyl)-3-ureidothiophene-2-carboxamide trifluoroacetate]: the IC50 in the assay on Parental Ba/F3 cells turned out to be 0.3 µM. Further, the figures for the GI50 (in assay [1]; on FLT3-ITD Ba/F3 cells) were 0.075 µM and 0.003 µM, respectively.

For the compound `CS(=O)(=O)N1CCC(n2cc(C#Cc3cc(NC(N)=O)c(C(=O)N[C@H]4CCCCNC4)s3)cn2)CC1` [Example 47, (S)—N-(azepan-3-yl)-5-((1-(1-(methylsulfonyl)piperidin-4-yl)-1H-pyrazol-4-yl)ethynyl)-3-ureidothiophene-2-carboxamide trifluoroacetate], the IC50 in the assay with Parental Ba/F3 cells is > 5 µM. In addition, the GI50 in assay [1] came to 0.645 µM; on FLT3-ITD Ba/F3 cells, 0.027 µM.

As to `NC(=O)Nc1cc(C#Cc2ccsc2)sc1C(=O)N[C@H]1CCCCNC1` [Example 48, (S)—N-(azepan-3-yl)-5-(thiophen-3-ylethynyl)-3-ureidothiophene-2-carboxamide trifluoroacetate], in the assay with Parental Ba/F3 cells, the IC50 worked out at 1.59 µM. Besides, the GI50 in assay [1] was determined as 0.083 µM; at FLT3-ITD Ba/F3 cells it was 0.005 µM.

As to `CC(=O)N1CCC(n2cc(C#Cc3cc(NC(N)=O)c(C(=O)N[C@H]4CCCCNC4)s3)cn2)CC1` [Example 49], the IC50 in the assay on Parental Ba/F3 cells is > 5 µM. For the same compound, the GI50 in assay [1] was determined as 0.616 µM; on FLT3-ITD Ba/F3 cells, 0.017 µM.

Turning to `NC(=O)Nc1cc(C#Cc2cccc(F)c2)sc1C(=O)N[C@H]1CCCCNC1` [Example 50, (S)—N-(azepan-3-yl)-5-((3-fluorophenyl)ethynyl)-3-ureidothiophene-2-carboxamide], in the assay with Parental Ba/F3 cells, the IC50 was 7.8 µM. The GI50 in assay [1] turned out to be 0.174 µM; on FLT3-ITD Ba/F3 cells, 0.023 µM.
